According to ChEMBL document CHEMBL1153960, “Syntheses of novel high affinity ligands for opioid receptors” (Bioorg Med Chem Lett, 2009):

Legend:
[1] = molecular target: T1, Kappa-type opioid receptor (Homo sapiens, UniProt P41145); assay: Displacement of [3H]U69,593 from human kappa opioid receptor expressed in CHO cells after 60 mins by scintillation counting
Mu-type opioid receptor [2] = molecular target: T2, Mu-type opioid receptor (Homo sapiens, UniProt P35372); assay: biochemical
[3] = molecular target: T3, Delta-type opioid receptor (Homo sapiens, UniProt P41143); assay: biochemical
[4] = molecular target: T3, Delta-type opioid receptor; assay: biochemical; remark: listed apart in the source
[5] = molecular target: T1, Kappa-type opioid receptor; assay: Agonist activity at human kappa opioid receptor expressed in CHO cells assessed as stimulation of [35S]GTPgammaS binding
[6] = molecular target: T1, Kappa-type opioid receptor; assay: Antagonist activity against human kappa opioid receptor expressed in CHO cells assessed as inhibition of U50488-stimulated [35S]GTPgammaS binding
[7] = molecular target: T3, Delta-type opioid receptor; assay: biochemical; remark: listed apart in the source
Description: Agonist activity at human delta opioid receptor expressed in CHO cells assessed as stimulation of [35S]GTPgammaS binding

Mu-type opioid receptor [8] = molecular target: T2, Mu-type opioid receptor; assay: biochemical; remark: listed apart in the source
[9] = molecular target: T1, Kappa-type opioid receptor; details: CHO, 10 uM
Mu-type opioid receptor [10] = molecular target: T2, Mu-type opioid receptor; details: CHO, 10 uM
Mu-type opioid receptor [11] = molecular target: T2, Mu-type opioid receptor; assay: biochemical; remark: listed apart in the source
Description: Agonist activity at human mu opioid receptor expressed in CHO cells assessed as stimulation of [35S]GTPgammaS binding

T3 sequence (P41143 whole entry): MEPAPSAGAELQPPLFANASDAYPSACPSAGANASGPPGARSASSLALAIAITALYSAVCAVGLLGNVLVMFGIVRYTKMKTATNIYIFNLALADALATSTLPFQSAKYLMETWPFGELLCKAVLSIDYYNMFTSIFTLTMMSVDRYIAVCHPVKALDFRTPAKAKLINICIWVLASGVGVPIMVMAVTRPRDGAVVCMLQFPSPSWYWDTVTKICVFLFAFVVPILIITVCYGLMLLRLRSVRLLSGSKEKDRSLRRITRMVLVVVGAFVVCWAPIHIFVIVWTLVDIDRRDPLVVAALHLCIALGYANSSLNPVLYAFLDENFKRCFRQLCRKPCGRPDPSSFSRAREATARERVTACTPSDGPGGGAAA
T1 sequence (P41145 whole entry): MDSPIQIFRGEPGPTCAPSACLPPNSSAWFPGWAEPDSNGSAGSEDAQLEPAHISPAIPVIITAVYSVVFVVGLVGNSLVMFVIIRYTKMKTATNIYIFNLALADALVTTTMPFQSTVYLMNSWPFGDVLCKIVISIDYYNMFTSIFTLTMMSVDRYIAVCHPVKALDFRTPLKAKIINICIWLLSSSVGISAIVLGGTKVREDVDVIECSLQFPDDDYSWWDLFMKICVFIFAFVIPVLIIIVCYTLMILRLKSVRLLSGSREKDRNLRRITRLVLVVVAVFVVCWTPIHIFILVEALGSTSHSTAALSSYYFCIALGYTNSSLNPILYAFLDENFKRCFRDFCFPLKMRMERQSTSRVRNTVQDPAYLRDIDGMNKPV
T2 sequence (P35372 whole entry): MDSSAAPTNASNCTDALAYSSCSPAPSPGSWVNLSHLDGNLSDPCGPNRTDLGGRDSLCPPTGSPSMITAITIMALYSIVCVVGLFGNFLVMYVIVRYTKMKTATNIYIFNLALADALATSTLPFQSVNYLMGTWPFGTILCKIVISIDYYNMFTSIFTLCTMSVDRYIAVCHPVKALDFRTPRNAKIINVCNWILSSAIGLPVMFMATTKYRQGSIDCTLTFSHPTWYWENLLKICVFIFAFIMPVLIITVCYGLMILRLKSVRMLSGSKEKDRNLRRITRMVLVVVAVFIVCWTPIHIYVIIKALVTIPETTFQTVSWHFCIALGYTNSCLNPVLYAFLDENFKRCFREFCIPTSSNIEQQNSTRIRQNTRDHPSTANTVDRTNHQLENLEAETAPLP

SMILES	Ki [1]	Ki (Mu-type opioid receptor [2])	Ki [3]	IC50 [4]	IC50 (Mu-type opioid receptor [8])	further results
NC(=O)c1ccc2c3c1O[C@H]1c4[nH]c5ccccc5c4C[C@@]4(O)[C@@H](C2)N(CC2CC2)CC[C@]314	47 nM	46 nM	0.3 nM	0.77 nM	–	–
C[N+]1(CC2CC2)CC[C@]23c4c5ccc(C(N)=O)c4O[C@H]2C(=O)CC[C@@]3(O)[C@H]1C5 (stereo partly specified)	–	37 nM	> 10000 nM	–	–	–
NC(=O)c1ccc2c(c1O)[C@]13CCN(CC4CC4)[C@H](C2)[C@]1(O)CCC(=O)C3	–	–	–	6.9 nM	0.88 nM	EC50 [5]: 3.3 nM; IC50 [6]: 38 nM; EC50 [7]: 1.8 nM
NC(=O)c1ccc2c(c1O)[C@]13CCN(CC4CCC4)[C@H](C2)[C@]1(O)CC[C@H](O)C3	–	–	–	–	–	Imax [9]: 36%
NC(=O)c1ccc2c3c1O[C@H]1[C@@H](O)CC[C@@]4(O)[C@@H](C2)N(CC2CCC2)CC[C@]314	–	–	–	–	–	Imax (Mu-type opioid receptor [10]): 56%
NC(=O)c1ccc2c(c1O)[C@]13CCN(CC4CC4)[C@H](C2)[C@]1(O)Cc1c([nH]c2ccccc12)C3	0.81 nM	0.51 nM	0.025 nM	0.08 nM	–	IC50 [6]: 28 nM
CN1CC[C@]23CC(=O)CC[C@H]2[C@H]1Cc1ccc(C(N)=O)c(O)c13	2.3 nM	0.3 nM	8.3 nM	–	–	EC50 [5]: 3.9 nM; EC50 (Mu-type opioid receptor [11]): 1.6 nM
NC(=O)c1ccc2c(c1O)[C@]13CCN(CC4CCC4)[C@H](C2)[C@]1(O)CC[C@@H](O)C3	–	–	–	130 nM	–	Imax [9]: 25%; EC50 [7]: 3.7 nM
NC(=O)c1ccc2c3c1O[C@H]1C(=O)CC[C@@]4(O)[C@@H](C2)N(CC2CC2)CC[C@]314	–	–	–	–	270 nM	EC50 (Mu-type opioid receptor [11]): 4.9 nM
C[N+]1(CC2CC2)CC[C@]23c4c5ccc(O)c4O[C@H]2C(=O)CC[C@@]3(O)[C@H]1C5 (stereo partly specified) [NALTREXONE METHIODIDE]	–	–	–	–	170 nM	EC50 [5]: 9 nM; Imax [9]: 60%
NC(=O)c1ccc2c(c1O)[C@@]13CCCC[C@@]1(O)[C@@H](C2)N(CC1CC1)CC3	–	–	–	5.8 nM	–	EC50 [5]: 2.3 nM; IC50 [6]: 57 nM
Oc1ccc2c3c1O[C@H]1CCC[C@@]4(O)[C@@H](C2)N(CC2CC2)CC[C@]314	0.24 nM	0.24 nM	79 nM	–	4.4 nM	IC50 [6]: 13 nM
NC(=O)c1ccc2c3c1O[C@H]1CCC[C@@]4(O)[C@@H](C2)N(CC2CC2)CC[C@]314	16 nM	2.5 nM	630 nM	–	54 nM	–
CN1CC[C@]23c4c5ccc(C(N)=O)c4O[C@H]2C(=O)CC[C@H]3[C@H]1C5	–	1.2 nM	260 nM	–	–	EC50 (Mu-type opioid receptor [11]): 110 nM
